{"source": "BindingDB's records for doi:10.1016/S0960-894X(01)80753-8", "about": "(1993)", "data": [{"target": "Platelet-activating factor receptor (Oryctolagus cuniculus)", "test": "Inhibition of [3H]PAF binding to rabbit platelet membranes", "units": {"Ki": "nM"}, "values": [{"smiles": "O=C(c1ccccc1)c1cccc(NC(=O)[C@@H]2OC(=O)N3[C@@H](c4cccnc4)SC[C@@H]23)c1", "note": "[(1R,5R,7aR)-3-Oxo-5-pyridin-3-yl-dihydro-thiazolo[3,4-c]oxazole-1-carboxylic acid (3-benzoyl-phenyl)-amide]", "Ki": 1200}, {"smiles": "O=C(c1ccccc1)c1cccc(NC(=O)[C@@H]2OC(=O)N3[C@H](c4cccnc4)SC[C@@H]23)c1", "note": "[(1R,5S,7aR)-3-Oxo-5-pyridin-3-yl-dihydro-thiazolo[3,4-c]oxazole-1-carboxylic acid (3-benzoyl-phenyl)-amide]", "Ki": 2500}, {"smiles": "O=C(c1ccccc1)c1cccc(NC(=O)[C@H]2OC(=O)N3[C@@H](c4cccnc4)SC[C@@H]23)c1", "note": "[(1S,5R,7aR)-3-Oxo-5-pyridin-3-yl-dihydro-thiazolo[3,4-c]oxazole-1-carboxylic acid (3-benzoyl-phenyl)-amide]", "Ki": 24}, {"smiles": "O=C(c1ccccc1)c1cccc(NC(=O)[C@H]2OC(=O)N3[C@H](c4cccnc4)SC[C@@H]23)c1", "note": "[(1S,5S,7aR)-3-Oxo-5-pyridin-3-yl-dihydro-thiazolo[3,4-c]oxazole-1-carboxylic acid (3-benzoyl-phenyl)-amide]", "Ki": 150}, {"smiles": "O=C(c1ccccc1)c1cccc(NC(=O)[C@@H]2CSC(c3cccnc3)N2)c1", "note": "(stereo partly drawn) [(R)-2-Pyridin-3-yl-thiazolidine-4-carboxylic acid (3-benzoyl-phenyl)-amide]", "Ki": 5}]}]}
